Experimental data as given in PubChem BioAssay (NCI).
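All cell lines were grown in 96-well plates and treated with compound for 48 hours. At the TGI there is no net growth.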

How the values were obtained:
Test in all cases: NCI anticancer screen, dose series, 48 h
NCI-H23 lung = test system: NCI-H23 lung
NCI/ADR-RES ovarian = test system: NCI/ADR-RES ovarian
SW-620 colon = test system: SW-620 colon
A549 NSCLC = test system: A549 NSCLC
HOP-92 NSCLC = test system: HOP-92 NSCLC
IGROV1 ovarian = test system: IGROV1 ovarian
TK-10 renal = test system: TK-10 renal
786-0 renal = test system: 786-0 renal
U251 CNS = test system: U251 CNS
HCC-2998 colon = test system: HCC-2998 colon
SK-MEL-2 melanoma = test system: SK-MEL-2 melanoma
MDA-MB-435 = test system: MDA-MB-435
NCI-H226 lung = test system: NCI-H226 lung
MCF7 breast = test system: MCF7 breast
ACHN renal = test system: ACHN renal
SNB-19 CNS = test system: SNB-19 CNS
BT-549 breast = test system: BT-549 breast
NCI-H460 lung = test system: NCI-H460 lung
SN12C renal = test system: SN12C renal
DU-145 prostate = test system: DU-145 prostate
KM12 colon = test system: KM12 colon
OVCAR-4 ovarian = test system: OVCAR-4 ovarian
MALME-3M melanoma = test system: MALME-3M melanoma
SK-MEL-5 melanoma = test system: SK-MEL-5 melanoma
HL-60(TB) leukemia = test system: HL-60(TB) leukemia
SNB-75 CNS = test system: SNB-75 CNS
HCT-15 colon = test system: HCT-15 colon
OVCAR-5 ovarian = test system: OVCAR-5 ovarian
UACC-257 melanoma = test system: UACC-257 melanoma
CAKI-1 renal = test system: CAKI-1 renal
T-47D breast = test system: T-47D breast
SK-MEL-28 melanoma = test system: SK-MEL-28 melanoma
M14 melanoma = test system: M14 melanoma
NCI-H522 lung = test system: NCI-H522 lung
SF-539 CNS = test system: SF-539 CNS
COLO 205 colon = test system: COLO 205 colon
SF-268 CNS = test system: SF-268 CNS
EKVX NSCLC = test system: EKVX NSCLC
MOLT-4 leukemia = test system: MOLT-4 leukemia
CCRF-CEM leukemia = test system: CCRF-CEM leukemia
LOX IMVI melanoma = test system: LOX IMVI melanoma
UO-31 renal = test system: UO-31 renal
RXF 393 renal = test system: RXF 393 renal
MDA-N = test system: MDA-N
MDA-MB-231 breast = test system: MDA-MB-231 breast
SF-295 CNS = test system: SF-295 CNS
HCT-116 colon = test system: HCT-116 colon
OVCAR-8 ovarian = test system: OVCAR-8 ovarian
A498 renal = test system: A498 renal
HOP-62 NSCLC = test system: HOP-62 NSCLC
HT29 colon = test system: HT29 colon
PC-3 prostate = test system: PC-3 prostate
HS 578T breast = test system: HS 578T breast
RPMI-8226 leukemia = test system: RPMI-8226 leukemia
UACC-62 melanoma = test system: UACC-62 melanoma
K-562 leukemia = test system: K-562 leukemia
SK-OV-3 ovarian = test system: SK-OV-3 ovarian
OVCAR-3 ovarian = test system: OVCAR-3 ovarian

In the case of `O=c1cn[nH]c2nc3ccccc3n12`, the TGI (NCI-H23 lung) is reported as > 100 µM, the TGI (NCI/ADR-RES ovarian) is reported as > 100 µM and the TGI (SW-620 colon) is reported as > 100 µM. For the same compound, the TGI (A549 NSCLC) was > 100 µM, the TGI (HOP-92 NSCLC) was > 100 µM and the TGI (IGROV1 ovarian) was > 100 µM. For the same compound, the TGI (TK-10 renal) was > 100 µM, the TGI (786-0 renal) was > 100 µM and the TGI (U251 CNS) was > 100 µM. The TGI (HCC-2998 colon) was > 100 µM, the TGI (SK-MEL-2 melanoma) was > 100 µM and the TGI (MDA-MB-435) was > 100 µM. The TGI (NCI-H226 lung) was > 100 µM, the TGI (MCF7 breast) was > 100 µM and the TGI (ACHN renal) was > 100 µM. For the same compound, the TGI (SNB-19 CNS) was > 100 µM, the TGI (BT-549 breast) was > 100 µM and the TGI (NCI-H460 lung) was > 100 µM. For the same compound, the TGI (SN12C renal) was > 100 µM, the TGI (DU-145 prostate) was > 100 µM and the TGI (KM12 colon) was > 100 µM. The TGI (OVCAR-4 ovarian) was > 100 µM, the TGI (MALME-3M melanoma) was > 100 µM and the TGI (SK-MEL-5 melanoma) was > 100 µM. The TGI (HL-60(TB) leukemia) was > 100 µM, the TGI (SNB-75 CNS) was > 100 µM and the TGI (HCT-15 colon) was > 100 µM. For the same compound, the TGI (OVCAR-5 ovarian) was > 100 µM, the TGI (UACC-257 melanoma) was > 100 µM and the TGI (CAKI-1 renal) was > 100 µM. For the same compound, the TGI (T-47D breast) was > 100 µM, the TGI (SK-MEL-28 melanoma) was > 100 µM and the TGI (M14 melanoma) was > 100 µM. For the same compound, the TGI (NCI-H522 lung) was > 100 µM, the TGI (SF-539 CNS) was > 100 µM and the TGI (COLO 205 colon) was > 100 µM. For the same compound, the TGI (SF-268 CNS) was > 100 µM, the TGI (EKVX NSCLC) was > 100 µM and the TGI (MOLT-4 leukemia) was > 100 µM. For the same compound, the TGI (CCRF-CEM leukemia) was > 100 µM, the TGI (LOX IMVI melanoma) was > 100 µM and the TGI (UO-31 renal) was > 100 µM. For the same compound, the TGI (RXF 393 renal) was > 100 µM, the TGI (MDA-N) was > 100 µM and the TGI (MDA-MB-231 breast) was > 100 µM. The TGI (SF-295 CNS) was > 100 µM, the TGI (HCT-116 colon) was > 100 µM and the TGI (OVCAR-8 ovarian) was > 100 µM. The TGI (A498 renal) was > 100 µM, the TGI (HOP-62 NSCLC) was > 100 µM and the TGI (HT29 colon) was > 100 µM. For the same compound, the TGI (PC-3 prostate) was > 100 µM and the TGI (HS 578T breast) was > 100 µM.
In the case of `O=c1c(-c2ccccc2)c(SCCN2CCCC2)n(-c2ccccc2)c(=S)n1-c1ccccc1`, the TGI (NCI-H23 lung) is reported as > 100 µM, the TGI (NCI/ADR-RES ovarian) is reported as > 100 µM and the TGI (SW-620 colon) is reported as > 100 µM. For the same compound, the TGI (A549 NSCLC) was > 100 µM, the TGI (HOP-92 NSCLC) was > 100 µM and the TGI (IGROV1 ovarian) was > 100 µM. The TGI (TK-10 renal) was > 100 µM, the TGI (786-0 renal) was > 100 µM and the TGI (U251 CNS) was > 100 µM. For the same compound, the TGI (HCC-2998 colon) was > 100 µM, the TGI (SK-MEL-2 melanoma) was > 100 µM and the TGI (RPMI-8226 leukemia) was > 100 µM. For the same compound, the TGI (MDA-MB-435) was > 100 µM, the TGI (NCI-H226 lung) was > 100 µM and the TGI (UACC-62 melanoma) was > 100 µM. The TGI (MCF7 breast) was > 100 µM, the TGI (ACHN renal) was > 100 µM and the TGI (SNB-19 CNS) was > 100 µM. For the same compound, the TGI (BT-549 breast) was > 100 µM, the TGI (NCI-H460 lung) was > 100 µM and the TGI (K-562 leukemia) was > 100 µM. The TGI (SN12C renal) was > 100 µM, the TGI (DU-145 prostate) was > 100 µM and the TGI (KM12 colon) was > 100 µM. The TGI (OVCAR-4 ovarian) was > 100 µM, the TGI (MALME-3M melanoma) was > 100 µM and the TGI (HL-60(TB) leukemia) was > 100 µM. The TGI (SK-OV-3 ovarian) was > 100 µM, the TGI (SNB-75 CNS) was > 100 µM and the TGI (HCT-15 colon) was > 100 µM. For the same compound, the TGI (OVCAR-5 ovarian) was > 100 µM, the TGI (UACC-257 melanoma) was > 100 µM and the TGI (CAKI-1 renal) was > 100 µM. The TGI (T-47D breast) was > 100 µM, the TGI (SK-MEL-28 melanoma) was > 100 µM and the TGI (M14 melanoma) was > 100 µM. For the same compound, the TGI (NCI-H522 lung) was > 100 µM, the TGI (SF-539 CNS) was > 100 µM and the TGI (COLO 205 colon) was > 100 µM. For the same compound, the TGI (SF-268 CNS) was > 100 µM, the TGI (EKVX NSCLC) was > 100 µM and the TGI (MOLT-4 leukemia) was > 100 µM. The TGI (CCRF-CEM leukemia) was > 100 µM, the TGI (LOX IMVI melanoma) was > 100 µM and the TGI (RXF 393 renal) was > 100 µM. The TGI (MDA-N) was > 100 µM, the TGI (MDA-MB-231 breast) was > 100 µM and the TGI (SF-295 CNS) was > 100 µM. For the same compound, the TGI (HCT-116 colon) was > 100 µM, the TGI (OVCAR-8 ovarian) was > 100 µM and the TGI (A498 renal) was > 100 µM. The TGI (HOP-62 NSCLC) was > 100 µM, the TGI (HT29 colon) was > 100 µM and the TGI (PC-3 prostate) was > 100 µM. The TGI (HS 578T breast) was > 100 µM.
`O=C1C(Cl)=C(Cl)C(Cl)(Cl)C(Cl)C1(Cl)Cl` (configuration not stated) was tested, and the TGI (NCI-H23 lung) was 52.9 µM, the TGI (NCI/ADR-RES ovarian) was 64 µM and the TGI (SW-620 colon) was 54.7 µM. The TGI (A549 NSCLC) was 51.3 µM, the TGI (HOP-92 NSCLC) was 59.8 µM and the TGI (IGROV1 ovarian) was 33.2 µM. The TGI (TK-10 renal) was 65.3 µM, the TGI (786-0 renal) was > 100 µM and the TGI (U251 CNS) was 44.6 µM. The TGI (HCC-2998 colon) was 34.9 µM, the TGI (SK-MEL-2 melanoma) was 34.3 µM and the TGI (RPMI-8226 leukemia) was 70.4 µM. The TGI (MDA-MB-435) was 59.2 µM, the TGI (UACC-62 melanoma) was 32.9 µM and the TGI (MCF7 breast) was 55 µM. The TGI (ACHN renal) was > 100 µM, the TGI (SNB-19 CNS) was 61 µM and the TGI (BT-549 breast) was 54.1 µM. The TGI (NCI-H460 lung) was 47.4 µM, the TGI (K-562 leukemia) was > 100 µM and the TGI (SN12C renal) was 50.6 µM. The TGI (DU-145 prostate) was > 100 µM, the TGI (KM12 colon) was 50.6 µM and the TGI (MALME-3M melanoma) was 49.5 µM. For the same compound, the TGI (SK-MEL-5 melanoma) was 27.6 µM, the TGI (HL-60(TB) leukemia) was 58.4 µM and the TGI (SK-OV-3 ovarian) was 74.1 µM. It also gave a TGI (SNB-75 CNS) of 58.6 µM, a TGI (HCT-15 colon) of 98.8 µM and a TGI (OVCAR-5 ovarian) of 58 µM. It also gave a TGI (UACC-257 melanoma) of 44.8 µM, a TGI (T-47D breast) of 75.9 µM and a TGI (SK-MEL-28 melanoma) of 62.1 µM. The TGI (M14 melanoma) was 90.8 µM, the TGI (NCI-H522 lung) was 32.5 µM and the TGI (SF-539 CNS) was 32.8 µM. The TGI (COLO 205 colon) was 41.2 µM, the TGI (SF-268 CNS) was 51.3 µM and the TGI (EKVX NSCLC) was 50.9 µM. The TGI (CCRF-CEM leukemia) was 82.7 µM, the TGI (LOX IMVI melanoma) was 41.6 µM and the TGI (OVCAR-3 ovarian) was 47.4 µM. It also gave a TGI (UO-31 renal) of 32.7 µM, a TGI (RXF 393 renal) of 44.5 µM and a TGI (MDA-N) of 66.2 µM. It also gave a TGI (MDA-MB-231 breast) of 44.6 µM, a TGI (SF-295 CNS) of 50.8 µM and a TGI (HCT-116 colon) of 42.9 µM. For the same compound, the TGI (OVCAR-8 ovarian) was > 100 µM, the TGI (A498 renal) was 29.8 µM and the TGI (HOP-62 NSCLC) was 76.2 µM. For the same compound, the TGI (HT29 colon) was 71.5 µM, the TGI (PC-3 prostate) was 77.1 µM and the TGI (HS 578T breast) was 64.9 µM.
